Our source for the IC50 values is US20080004253A1, “Thiazolopyrimidine modulators of TRPV1” (priority 2006, published 2008).

pIC50: −log10 of the molar value.

For one assay, the target named is T1, rat TRPV1 (Rattus norvegicus, UniProt O35433).
T1 construct: expressed in transfected cells; host or cells: HEK293 (rTRPV1/HEK293), geneticin selection
As to the kind of experiment: Functional assay: block of capsaicin-induced Ca2+ influx, rat assay (rTRPV1/HEK293, FLIPR). As to conditions: rTRPV1/HEK293 cells, capsaicin challenge, Fluo-3 fluorescence; mean; > value = solubility limit in assay medium. It is filed as cell-based. As for the experimental part: (§1) Functional assay: block of capsaicin-induced Ca^2+ influx
(§2) HEK293 cells were transfected with human TRPV1 cloned in pcDNA3.1zeo(+) using the Effectene non-liposomal lipid based transfection kit (Qiagen) (hTRPV1/HEK293). hTRPV1/HEK293 cells were routinely grown as monolayers under selection in zeocin (200 μg/mL; Invitrogen) in Dulbecco's Modified Eagle Medium (DMEM, Gibco BRL) supplemented with 10% fetal bovine serum, and penicillin/streptomycin (50 units/mL) in 5% CO2 at 37° C. Cells were passaged frequently, every 3-5 days, to avoid overgrowth, depletion of essential medium components, or acidic medium exposure. Cells were passaged using a brief wash in 0.05% trypsin with 1 mM EDTA, followed by dissociation in divalent-free phosphate-buffered saline (Hyclone #SH30028.02). […] The assay buffer was composed of 130 mM NaCl, 2 mM KCl, 2 mM MgCl2, 10 mM HEPES, 5 mM glucose, and either 2 mM or 20 μM CaCl2. On the day of the experiment, the culture medium was replaced with 2 mM calcium assay buffer using an automated plate washer (ELx405; Biotek, VT). […] After loading the cells, the dye solution was replaced with 50 μL/well of 20 μM calcium assay buffer using the ELx405 plate washer. Test compounds (50 μL/well) were added to the plate and incubated for 30 min. […] The IC50 values were determined. […] The contents of the wells were mixed 3 times (40 μL mix volume) immediately after the additions were made. Concentration-dependence of block was determined by exposing each well of cells in duplicate rows of a 96-well plate to a serial dilution of test compound. The concentration series usually started at 10 μM with a three-fold serial decrement in concentration. The magnitude of the capsaicin response was determined by measuring the change in fluo3 fluorescence before and 100 seconds after the addition of the agonist. Data were analyzed using a non-linear regression program (Origin; OriginLab, MA).
This assay was performed similarly to the human assay described above, but using HEK293 cells transfected with rat TRPV1 (rTRPV1/HEK293).
(§3) IC50 values shown are the average (mean) of the results obtained. […] Compounds were tested in either the free base or trifluoroacetic acid salt form.

In the next assay the target is T2, human TRPV1 (Homo sapiens, UniProt Q8NER1).
T2 construct: expressed in transfected cells; host or cells: HEK293 (hTRPV1/HEK293), zeocin selection
As to the kind of experiment: Functional assay: block of capsaicin-induced Ca2+ influx, human assay (hTRPV1/HEK293, FLIPR). It is filed as cell-based. The note with it: hTRPV1/HEK293 cells, 150 nM capsaicin challenge, Fluo-3 fluorescence; mean; > value = solubility limit in assay medium. How it is done:
as §1, §2, §3

Usually pIC50 stands for the negative decadic logarithm of the IC50, by convention in mol/L. A higher pIC50 goes with a low IC50.

T2 sequence (Q8NER1 whole entry): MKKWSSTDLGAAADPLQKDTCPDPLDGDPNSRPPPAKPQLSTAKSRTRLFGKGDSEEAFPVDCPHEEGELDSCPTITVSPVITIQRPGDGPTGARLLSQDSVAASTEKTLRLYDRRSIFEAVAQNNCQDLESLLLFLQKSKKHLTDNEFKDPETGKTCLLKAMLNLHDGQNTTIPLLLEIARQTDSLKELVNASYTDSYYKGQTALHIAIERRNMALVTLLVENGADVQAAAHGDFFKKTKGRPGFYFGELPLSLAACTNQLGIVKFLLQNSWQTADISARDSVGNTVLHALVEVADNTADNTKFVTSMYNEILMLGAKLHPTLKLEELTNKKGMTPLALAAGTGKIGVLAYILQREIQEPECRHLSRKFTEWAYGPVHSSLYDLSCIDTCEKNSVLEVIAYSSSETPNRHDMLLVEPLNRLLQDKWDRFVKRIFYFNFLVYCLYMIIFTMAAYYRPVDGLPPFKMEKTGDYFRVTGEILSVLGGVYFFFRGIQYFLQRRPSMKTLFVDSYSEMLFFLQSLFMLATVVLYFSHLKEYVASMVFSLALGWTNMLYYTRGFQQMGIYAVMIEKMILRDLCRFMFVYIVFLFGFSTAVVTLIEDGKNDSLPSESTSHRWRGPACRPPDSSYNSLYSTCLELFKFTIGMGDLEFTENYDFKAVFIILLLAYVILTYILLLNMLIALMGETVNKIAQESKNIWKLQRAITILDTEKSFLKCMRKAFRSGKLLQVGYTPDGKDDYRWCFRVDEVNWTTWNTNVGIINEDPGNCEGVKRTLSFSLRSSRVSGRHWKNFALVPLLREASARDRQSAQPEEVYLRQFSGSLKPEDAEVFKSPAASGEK
T1 sequence (O35433 whole entry): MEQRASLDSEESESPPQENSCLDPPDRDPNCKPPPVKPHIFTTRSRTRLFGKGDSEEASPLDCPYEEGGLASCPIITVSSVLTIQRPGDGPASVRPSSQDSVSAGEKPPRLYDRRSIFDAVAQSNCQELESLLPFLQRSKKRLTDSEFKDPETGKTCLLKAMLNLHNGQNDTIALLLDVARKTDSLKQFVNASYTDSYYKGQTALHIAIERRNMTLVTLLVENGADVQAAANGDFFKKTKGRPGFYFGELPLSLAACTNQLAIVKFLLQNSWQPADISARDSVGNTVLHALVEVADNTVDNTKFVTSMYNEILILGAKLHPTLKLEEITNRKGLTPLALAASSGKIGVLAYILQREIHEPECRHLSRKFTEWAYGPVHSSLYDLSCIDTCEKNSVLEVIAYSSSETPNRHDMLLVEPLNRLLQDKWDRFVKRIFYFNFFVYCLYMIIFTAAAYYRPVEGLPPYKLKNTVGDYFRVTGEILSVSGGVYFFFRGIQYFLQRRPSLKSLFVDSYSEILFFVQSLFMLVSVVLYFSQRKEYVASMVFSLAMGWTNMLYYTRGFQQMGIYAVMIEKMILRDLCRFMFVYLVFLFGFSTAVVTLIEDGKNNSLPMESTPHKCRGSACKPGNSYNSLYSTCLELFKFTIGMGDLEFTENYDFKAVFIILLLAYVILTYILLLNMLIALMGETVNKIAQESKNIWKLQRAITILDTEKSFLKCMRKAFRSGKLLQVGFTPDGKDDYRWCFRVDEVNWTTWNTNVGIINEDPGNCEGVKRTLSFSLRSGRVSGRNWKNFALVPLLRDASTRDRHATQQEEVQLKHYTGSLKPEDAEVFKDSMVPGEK

With `Cc1nc(Nc2ccccc2)c2nc(Nc3c(Cl)cccc3Cl)sc2n1` [Example 170, N^2-(2,6-Dichloro-phenyl)-5-methyl-N^7-phenyl-thiazolo[5,4-d]pyrimidine-2,7-diamine], the pIC50 against rat TRPV1 and on human TRPV1 was less than 4.70 each time.

`CN1CCN(S(=O)(=O)c2ccc(Nc3ncnc4sc(Nc5c(Cl)cccc5Cl)nc34)cc2)CC1` [Example 88, N^2-(2,6-Dichloro-phenyl)-N^7-[4-(4-methyl-piperazine-1-sulfonyl)-phenyl]-thiazolo[5,4-d]pyrimidine-2,7-diamine]: the results for the pIC50 on rat TRPV1 and on human TRPV1 were 8.40 and 8.15, respectively.

`Cc1cccc(C)c1Nc1nc2c(Nc3ccc(C(C)(C)C)cc3)ncnc2s1` [Example 12, N^7-(4-tert-Butyl-phenyl)-N^2-(2,6-dimethyl-phenyl)-thiazolo[5,4-d]pyrimidine-2,7-diamine]: the pIC50 was 8.40 at rat TRPV1 and 7.52 against human TRPV1.

In the case of `Cc1nc(Nc2ccc(SC(F)(F)F)c(Cl)c2)c2nc(Nc3c(C)cccc3C)sc2n1` [Example 131, N^7-(3-Chloro-4-trifluoromethylsulfanyl-phenyl)-N^2-(2,6-dimethyl-phenyl)-5-methyl-thiazolo[5,4-d]pyrimidine-2,7-diamine], the pIC50 against rat TRPV1 was 6.85; at human TRPV1, 6.77.

`Cc1nc(Nc2ccc(C(C)(C)O)cc2)c2nc(Nc3c(Cl)cccc3Cl)sc2n1` [Example 74, 2-{4-[2-(2,6-Dichloro-phenylamino)-5-methyl-thiazolo[5,4-d]pyrimidin-7-ylamino]-phenyl}-propan-2-ol]: the pIC50 on rat TRPV1 is 10.30; against human TRPV1, 9.00.

Regarding `N#Cc1cc(Cl)c(Nc2nc3c(Nc4ccc(C(F)(F)F)cc4)ncnc3s2)c(Cl)c1` [Example 234, 3,5-Dichloro-4-[7-(4-trifluoromethyl-phenylamino)-thiazolo[5,4-d]pyrimidin-2-ylamino]-benzonitrile], the pIC50 is 7.17 against rat TRPV1 and 6.85 against human TRPV1.

As to `O=C(O)c1cc(Cl)c(Nc2nc3c(Nc4ccc(C(F)(F)F)cc4)ncnc3s2)c(Cl)c1` [Example 243, 3,5-Dichloro-4-[7-(4-trifluoromethyl-phenylamino)-thiazolo[5,4-d]pyrimidin-2-ylamino]-benzoic acid], the pIC50 against rat TRPV1 is 5.18; against human TRPV1, 5.34.

For `Cc1nc(Nc2ccccc2)c2nc(Nc3c(C)cccc3C)sc2n1` [Example 141, N^2-(2,6-Dimethyl-phenyl)-5-methyl-N^7-phenyl-thiazolo[5,4-d]pyrimidine-2,7-diamine], the pIC50 is 6.65 against rat TRPV1 and 6.46 at human TRPV1.

Consider `CC(CO)Nc1nc(Nc2ccc(C(F)(F)F)cc2)c2nc(Nc3c(Cl)cccc3Cl)sc2n1` (racemic) [Example 186, (racemic)-2-[2-(2,6-Dichloro-phenylamino)-7-(4-trifluoromethyl-phenylamino)-thiazolo[5,4-d]pyrimidin-5-ylamino]-propan-1-ol], for which the values for the pIC50 at rat TRPV1 and at human TRPV1 were 6.18 and 6.19, respectively.

`Cc1ccccc1Nc1nc2c(Nc3ccc(C(F)(F)F)cc3)ncnc2s1` [Example 17, N^2-o-Tolyl-N^7-(4-trifluoromethyl-phenyl)-thiazolo[5,4-d]pyrimidine-2,7-diamine]: the results for the pIC50 against rat TRPV1 and on human TRPV1 were 7.72 and 7.15, respectively.

Turning to `Cc1ccc(Nc2ncnc3sc(Nc4c(C)cccc4C)nc23)c(O)c1` [Example 158, 2-[2-(2,6-Dimethyl-phenylamino)-thiazolo[5,4-d]pyrimidin-7-ylamino]-5-methyl-phenol], the pIC50 on rat TRPV1 was 6.50; on human TRPV1, 5.70.

For `Cc1nc(Nc2ccc3c(c2)N(C)CCC3)c2nc(Nc3c(Cl)cccc3Cl)sc2n1` [Example 139, N^2-(2,6-Dichloro-phenyl)-5-methyl-N^7-(1-methyl-1,2,3,4-tetrahydro-quinolin-7-yl)-thiazolo[5,4-d]pyrimidine-2,7-diamine], the pIC50 at rat TRPV1 is 7.11; on human TRPV1, 6.55.

With `Cc1noc(C)c1Nc1nc2c(Nc3ccc(S(C)(=O)=O)cc3)ncnc2s1` [Example 224, N^2-(3,5-Dimethylisoxazol-4-yl)-N^7-[4-(methylsulfonyl)phenyl][1,3]thiazolo[5,4-d]pyrimidine-2,7-diamine], the pIC50 at rat TRPV1 was 5.80; against human TRPV1 it was 5.26.

Regarding `Cc1nc(Nc2ccc(C(F)(F)F)cc2)c2nc(Nc3c(-c4ccccc4)noc3C)sc2n1` [Example 27, 5-Methyl-N^2-(5-methyl-3-phenyl-isoxazol-4-yl)-N^7-(4-trifluoromethyl-phenyl)-thiazolo[5,4-d]pyrimidine-2,7-diamine], the pIC50 on rat TRPV1 was 7.60; against human TRPV1, 7.04.

Turning to `Cc1nc(Nc2ccc(C(F)(F)F)cc2)c2nc(Nc3ccccc3[N+](=O)[O-])sc2n1` [Example 206, 5-Methyl-N^2-(2-nitro-phenyl)-N^7-(4-trifluoromethyl-phenyl)-thiazolo[5,4-d]pyrimidine-2,7-diamine], the figures for the negative logarithm of the IC50 (pIC50) against rat TRPV1 and against human TRPV1 were 5.77 and 5.61, respectively.

For the compound `CSc1ccc(Nc2nc(C)nc3sc(Nc4c(Cl)cccc4Cl)nc23)cn1` [Example 185, N^2-(2,6-Dichloro-phenyl)-5-methyl-N^7-(6-methylsulfanyl-pyridin-3-yl)-thiazolo[5,4-d]pyrimidine-2,7-diamine], the pIC50 is 7.49 on rat TRPV1 and 7.51 against human TRPV1.

As for `Cc1nc(Nc2ccc(NS(C)(=O)=O)cc2)c2nc(Nc3c(C)cccc3C)sc2n1` [Example 174, N-{4-[2-(2,6-Dimethyl-phenylamino)-5-methyl-thiazolo[5,4-d]pyrimidin-7-ylamino]-phenyl}-methanesulfonamide], the pIC50 at rat TRPV1 was 5.13; against human TRPV1, less than 4.70.

Regarding `FC(F)(F)c1ccc(Nc2ncnc3sc(Nc4c(Cl)cc(CN5CCC5)cc4Cl)nc23)cc1` [Example 239, N^2-(4-Azetidin-1-ylmethyl-2,6-dichloro-phenyl)-N^7-(4-trifluoromethy-phenyl)-thiazolo[5,4-d]pyrimidine-2,7-diamine], the pIC50 at rat TRPV1 is 5.43; at human TRPV1 it was 5.47.

Regarding `Cc1cccc(C)c1Nc1nc2c(NCc3ccc(Cl)c(Cl)c3)ncnc2s1` [Example 39, N^7-(3,4-Dichloro-benzyl)-N^2-(2,6-dimethyl-phenyl)-thiazolo[5,4-d]pyrimidine-2,7-diamine], the pIC50 on rat TRPV1 and against human TRPV1 was less than 5.18 each time.

Consider `COc1nc(Nc2ccc(C(F)(F)F)cc2)c2nc(Nc3c(Cl)cccc3Cl)sc2n1` [Example 55, N^2-(2,6-Dichloro-phenyl)-5-methoxy-N^7-(4-trifluoromethyl-phenyl)-thiazolo[5,4d]pyrimidine-2,7-diamine], for which the pIC50 against rat TRPV1 and against human TRPV1 was less than 4.70 throughout.

As to `Cc1nc(Nc2ccc(C(F)(F)F)cc2)c2nc(Nc3c(C)cccc3C)sc2n1` [Example 245, N^2-(2,6-Dimethyl-phenyl)-5-methyl-N^7-(4-trifluoromethyl-phenyl)-thiazolo[5,4-d]pyrimidine-2,7-diamine], the pIC50 against rat TRPV1 is 8.30; on human TRPV1 it was 8.22.

Consider `Cc1cccc(C)c1Nc1nc2c(Nc3ccc(S(=O)(=O)C(F)(F)F)cc3)ncnc2s1` [Example 99, N^2-(2,6-Dimethyl-phenyl)-N^7-(4-trifluoromethanesulfonyl-phenyl)-thiazolo[5,4-d]pyrimidine-2,7-diamine], for which the pIC50 at rat TRPV1 was 8.40; at human TRPV1, 7.77.

As for `CC1CCCCN1c1nc(Nc2ccc(C(F)(F)F)cc2)c2nc(Nc3c(Cl)cccc3Cl)sc2n1` (racemic) [Example 191, (racemic)-N^2-(2,6-Dichloro-phenyl)-5-(2-methyl-piperidin-1-yl)-N^7-(4-trifluoromethyl-phenyl)-thiazolo[5,4-d]pyrimidine-2,7-diamine], the pIC50 on rat TRPV1 was 7.25; against human TRPV1, 7.85.

`FC(F)(F)c1ccc(Nc2ncnc3sc(Nc4ccccc4)nc23)cn1` [Example 21, N^2-Phenyl-N^7-(6-trifluoromethyl-pyridin-3-yl)-thiazolo[5,4-d]pyrimidine-2,7-diamine]: the pIC50 is 6.52 at rat TRPV1 and 6.25 at human TRPV1.

Regarding `Cc1ccccc1Nc1nc2c(Nc3ccc(S(C)(=O)=O)cc3)ncnc2s1` [Example 116, N^7-(4-Methanesulfonyl-phenyl)-N^2-o-tolyl-thiazolo[5,4-d]pyrimidine-2,7-diamine], the negative logarithm of the IC50 (pIC50) was 7.96 against rat TRPV1 and 7.35 against human TRPV1.
